Laboratory results: ChEMBL document CHEMBL3994622, “Design and synthesis of new RAF kinase-inhibiting antiproliferative quinoline derivatives. Part 2: Diarylurea derivatives” (Eur J Med Chem, 2017)

Tests used:
Format in all cases: functional
[1] = tested on: Malme-3M; assay: Growth inhibition of human MALME-3M cells assessed as cell growth at 10 uM incubated for 48 hrs by sulforhodamine B assay relative to control; conditions: read-out: Activity
[2] = tested on: RXF 393; assay: Growth inhibition of human RXF393 cells assessed as cell growth at 10 uM incubated for 48 hrs by sulforhodamine B assay relative to control; conditions: RXF 393, 48 h, read-out: Activity
[3] = tested on: SW-620; assay: Growth inhibition of human SW620 cells assessed as cell growth at 10 uM incubated for 48 hrs by sulforhodamine B assay relative to control; conditions: SW-620, 48 h, read-out: Activity
[4] = tested on: 786-0; assay: Growth inhibition of human 786-0 cells assessed as cell growth at 10 uM incubated for 48 hrs by sulforhodamine B assay relative to control; conditions: 786-0, 48 h, read-out: Activity
[5] = tested on: SK-MEL-5; assay: Growth inhibition of human SK-MEL-5 cells assessed as cell growth at 10 uM incubated for 48 hrs by sulforhodamine B assay relative to control; conditions: SK-MEL-5, 48 h, read-out: Activity
[6] = tested on: HOP-92; assay: Growth inhibition of human HOP92 cells assessed as cell growth at 10 uM incubated for 48 hrs by sulforhodamine B assay relative to control; conditions: HOP-92, 48 h, read-out: Activity
[7] = tested on: HCT-116; assay: Growth inhibition of human HCT116 cells assessed as cell growth at 10 uM incubated for 48 hrs by sulforhodamine B assay relative to control; conditions: HCT-116, 48 h, read-out: Activity
[8] = tested on: OVCAR-3; assay: Growth inhibition of human OVCAR3 cells assessed as cell growth at 10 uM incubated for 48 hrs by sulforhodamine B assay relative to control; conditions: OVCAR-3, 48 h, read-out: Activity
[9] = tested on: UO-31; assay: Growth inhibition of human UO31 cells assessed as cell growth at 10 uM incubated for 48 hrs by sulforhodamine B assay relative to control; conditions: UO-31, 48 h, read-out: Activity
[10] = tested on: HL-60(TB); assay: Growth inhibition of human HL-60(TB) cells assessed as cell growth at 10 uM incubated for 48 hrs by sulforhodamine B assay relative to control; conditions: HL-60, 48 h, read-out: Activity
[11] = tested on: CCRF-CEM; assay: Growth inhibition of human CCRF-CEM cells assessed as cell growth at 10 uM incubated for 48 hrs by sulforhodamine B assay relative to control; conditions: read-out: Activity
[12] = tested on: OVCAR-8; assay: Growth inhibition of human OVCAR8 cells assessed as cell growth at 10 uM incubated for 48 hrs by sulforhodamine B assay relative to control; conditions: OVCAR-8, 48 h, read-out: Activity
[13] = tested on: PC-3; assay: Growth inhibition of human PC3 cells assessed as cell growth at 10 uM incubated for 48 hrs by sulforhodamine B assay relative to control; conditions: PC-3, 48 h, read-out: Activity
[14] = tested on: SF-539; assay: Growth inhibition of human SF539 cells assessed as cell growth at 10 uM incubated for 48 hrs by sulforhodamine B assay relative to control; conditions: SF-539, 48 h, read-out: Activity
[15] = tested on: MDA-MB-231; assay: Growth inhibition of human MDA-MB-231 cells assessed as cell growth at 10 uM incubated for 48 hrs by sulforhodamine B assay relative to control; conditions: MDA-MB-231, 48 h, read-out: Activity
[16] = tested on: NCI/ADR-RES; assay: Growth inhibition of human NCI/ADR-RES cells assessed as cell growth at 10 uM incubated for 48 hrs by sulforhodamine B assay relative to control; conditions: read-out: Activity
[17] = tested on: SK-MEL-28; assay: Growth inhibition of human SK-MEL-28 cells assessed as cell growth at 10 uM incubated for 48 hrs by sulforhodamine B assay relative to control; conditions: SK-MEL-28, 48 h, read-out: Activity
[18] = tested on: MDA-MB-468; assay: Growth inhibition of human MDA-MB-468 cells assessed as cell growth at 10 uM incubated for 48 hrs by sulforhodamine B assay relative to control; conditions: MDA-MB-468, 48 h, read-out: Activity
[19] = tested on: U-251; assay: Growth inhibition of human U251 cells assessed as cell growth at 10 uM incubated for 48 hrs by sulforhodamine B assay relative to control; conditions: U-251, 48 h, read-out: Activity
[20] = tested on: RPMI-8226; assay: Growth inhibition of human RPMI8226 cells assessed as cell growth at 10 uM incubated for 48 hrs by sulforhodamine B assay relative to control; conditions: RPMI-8226, 48 h, read-out: Activity
[21] = tested on: SN12C; assay: Growth inhibition of human SN12C cells assessed as cell growth at 10 uM incubated for 48 hrs by sulforhodamine B assay relative to control; conditions: read-out: Activity
[22] = tested on: NCI-H23; assay: Growth inhibition of human NCI-H23 cells assessed as cell growth at 10 uM incubated for 48 hrs by sulforhodamine B assay relative to control; conditions: NCI-H23, 48 h, read-out: Activity
[23] = tested on: KM12; assay: Growth inhibition of human KM12 cells assessed as cell growth at 10 uM incubated for 48 hrs by sulforhodamine B assay relative to control; conditions: KM12, 48 h, read-out: Activity
[24] = tested on: SK-OV-3; assay: Growth inhibition of human SKOV3 cells assessed as cell growth at 10 uM incubated for 48 hrs by sulforhodamine B assay relative to control; conditions: SK-OV-3, 48 h, read-out: Activity
[25] = tested on: HOP-62; assay: Growth inhibition of human HOP62 cells assessed as cell growth at 10 uM incubated for 48 hrs by sulforhodamine B assay relative to control; conditions: HOP-62, 48 h, read-out: Activity
[26] = tested on: SR; assay: Growth inhibition of human SR cells incubated for 48 hrs by sulforhodamine B assay; conditions: for CC50: read-out: LC50 (the source's name)
[27] = tested on: T47D; assay: Growth inhibition of human T47D cells incubated for 48 hrs by sulforhodamine B assay; conditions: for CC50: read-out: LC50 (the source's name)
[28] = tested on: HOP-62; assay: Growth inhibition of human HOP62 cells incubated for 48 hrs by sulforhodamine B assay; conditions: HOP-62, 48 h; for CC50: read-out: LC50 (the source's name)
[29] = tested on: CCRF-CEM; assay: Growth inhibition of human CCRF-CEM cells incubated for 48 hrs by sulforhodamine B assay; conditions: for CC50: read-out: LC50 (the source's name)
[30] = tested on: COLO 205; assay: Growth inhibition of human COLO205 cells incubated for 48 hrs by sulforhodamine B assay; conditions: COLO 205, 48 h; for CC50: read-out: LC50 (the source's name)
[31] = tested on: HOP-92; assay: Growth inhibition of human HOP92 cells incubated for 48 hrs by sulforhodamine B assay; conditions: HOP-92, 48 h
[32] = tested on: M14; assay: Growth inhibition of human M14 cells incubated for 48 hrs by sulforhodamine B assay; conditions: M14, 48 h; for CC50: read-out: LC50 (the source's name)
[33] = tested on: HL-60(TB); assay: Growth inhibition of human HL-60(TB) cells incubated for 48 hrs by sulforhodamine B assay; conditions: HL-60, 48 h; for CC50: read-out: LC50 (the source's name)

SMILES: COc1cc2cc(Sc3ccc(NC(=O)Nc4ccc(Cl)c(Cl)c4)cc3)c(C)nc2cc1OC
- growth at 10 µM [1]: 89.9%
- growth at 10 µM [2]: 84.4%
- growth at 10 µM [3]: 89.9%
- growth at 10 µM [4]: 73.4%
- growth at 10 µM [5]: 71%
- growth at 10 µM [6]: 71.2%
- growth at 10 µM [7]: 67.9%
- growth at 10 µM [8]: 73%
- growth at 10 µM [9]: 62.8%
- growth at 10 µM [10]: 77.3%
- growth at 10 µM [11]: 50.7%
- growth at 10 µM [12]: 83.6%
- growth at 10 µM [13]: 56.1%
- growth at 10 µM [14]: 86%
- growth at 10 µM [15]: 87.9%
- growth at 10 µM [16]: 86.2%
- growth at 10 µM [17]: 96.5%
- growth at 10 µM [18]: 55.1%
- growth at 10 µM [19]: 70%
- growth at 10 µM [20]: 54.5%
- growth at 10 µM [21]: 78.8%
- growth at 10 µM [22]: 84.7%
- growth at 10 µM [23]: 74.5%
- growth at 10 µM [24]: 55%
- growth at 10 µM [25]: 92.6%

SMILES: COc1cc2cc(Oc3ccc(NC(=O)Nc4cc(C(F)(F)F)cc(C(F)(F)F)c4)cc3)c(C)nc2cc1OC
- growth at 10 µM [1]: -3.13%
- growth at 10 µM [2]: -24.5%
- growth at 10 µM [3]: 15.9%
- growth at 10 µM [4]: -16.6%
- growth at 10 µM [5]: -58.5%
- growth at 10 µM [6]: -25.4%
- GI50 [26]: 1.62 µM
- TGI [26]: 5.97 µM
- CC50 [26]: > 100 µM
- growth at 10 µM [7]: 3.73%
- growth at 10 µM [8]: 1.71%
- GI50 [27]: 1.48 µM
- TGI [27]: 5.67 µM
- CC50 [27]: 29.1 µM
- growth at 10 µM [9]: 11.6%
- GI50 [28]: 1.35 µM
- TGI [28]: 2.88 µM
- CC50 [28]: 6.15 µM
- growth at 10 µM [11]: 0.19%
- GI50 [29]: 0.64 µM
- TGI [29]: 3.47 µM
- CC50 [29]: > 100 µM
- growth at 10 µM [12]: 14.2%
- growth at 10 µM [13]: 6.82%
- GI50 [30]: 1.79 µM
- TGI [30]: 3.58 µM
- CC50 [30]: 7.18 µM
- growth at 10 µM [14]: -41%
- growth at 10 µM [15]: -36.1%
- growth at 10 µM [16]: 7.03%
- growth at 10 µM [17]: 7.66%
- GI50 [31]: 1.12 µM
- LC50 [31]: 40.9 µM
- TGI [31]: 3.9 µM
- growth at 10 µM [18]: -8.12%
- GI50 [32]: 1 µM
- TGI [32]: 2.88 µM
- CC50 [32]: 8.25 µM
- growth at 10 µM [19]: -26.5%
- growth at 10 µM [20]: 1.15%
- growth at 10 µM [21]: 7.69%
- GI50 [33]: 1.58 µM
- TGI [33]: 4.37 µM
- CC50 [33]: 41.8 µM
- growth at 10 µM [22]: 2.28%
- growth at 10 µM [23]: 5.61%
- growth at 10 µM [24]: -1.05%
- growth at 10 µM [25]: -54.1%

SMILES: Cc1nc2cc(O)c(O)cc2cc1Oc1ccc(NC(=O)Nc2ccc(Cl)c(Cl)c2)cc1
- growth at 10 µM [1]: 85.2%
- growth at 10 µM [2]: 20.4%
- growth at 10 µM [3]: 49.3%
- growth at 10 µM [4]: 103%
- growth at 10 µM [5]: -42.2%
- growth at 10 µM [6]: 37.5%
- GI50 [26]: 1.56 µM
- TGI [26]: 12.3 µM
- CC50 [26]: > 32.5 µM
- growth at 10 µM [7]: 44.6%
- growth at 10 µM [8]: 67.9%
- GI50 [27]: 11.6 µM
- TGI [27]: > 32.5 µM
- CC50 [27]: > 32.5 µM
- growth at 10 µM [9]: 58.6%
- growth at 10 µM [10]: 96.8%
- GI50 [28]: 8.62 µM
- TGI [28]: > 32.5 µM
- CC50 [28]: > 32.5 µM
- growth at 10 µM [11]: 19.9%
- GI50 [29]: 6.19 µM
- TGI [29]: 21.8 µM
- CC50 [29]: > 32.5 µM
- growth at 10 µM [12]: 47.7%
- growth at 10 µM [13]: 39.3%
- GI50 [30]: 10.3 µM
- TGI [30]: > 32.5 µM
- CC50 [30]: > 32.5 µM
- growth at 10 µM [14]: 56.9%
- growth at 10 µM [15]: 45%
- growth at 10 µM [16]: 59%
- growth at 10 µM [17]: 79.1%
- GI50 [31]: 2.85 µM
- LC50 [31]: > 32.5 µM
- TGI [31]: 16.7 µM
- GI50 [32]: 5.97 µM
- TGI [32]: 13.8 µM
- CC50 [32]: 32 µM
- growth at 10 µM [19]: 41.4%
- growth at 10 µM [20]: 75.7%
- growth at 10 µM [21]: 85.7%
- GI50 [33]: 9.02 µM
- TGI [33]: 22.4 µM
- CC50 [33]: > 32.5 µM
- growth at 10 µM [22]: 62.8%
- growth at 10 µM [23]: 74.7%
- growth at 10 µM [24]: 45%
- growth at 10 µM [25]: 35.7%
